Entries after “also recorded” stand apart in the source; their conditions may differ.
Columns and labels:
[1] = test system: primary human orbital fibroblasts; assay: TGFβ-induced myofibroblast formation, αSMA Western blot, primary human orbital fibroblasts; details: for overt toxicity / TGFβ-induced myofibroblast differentiation (αSMA expression): 2-500 μM
Description: Total protein was isolated from 0.5-2×10^6 cells and lysed in 60 mM Tris, pH 6.8, 2% SDS containing 1× protease inhibitor cocktail (Sigma, St. Louis, Mo.). The lysates were passed through a 26 gauge needle 5-6 times to shear genomic DNA. Protein concentrations were determined using the detergent compatible protein assay (BioRad). Total protein (1-10 ug per lane) was subjected to SDS-PAGE. Protein gels were transferred to PVDF membrane (Millipore) and probed with antibodies as specified. Western blot band intensities were quantified using ImageLab software (BioRad). Protein expression was normalized to β-tubulin levels.
Primary human orbital fibroblasts, primary human lung fibroblasts, and primary mouse lung fibroblasts were treated with TGFβ and HCPT (50 nM, 500 nM, and 5000 nM) or SNC (500 nM) or AXD (0.5 μM, 5 μM, and 50 μM) to assess the ability of HCPT to inhibit myofibroblast formation. […] Western blots were performed using cell lysates from the fibroblasts exposed to TGFβ to assess TGFβ-dependent αSMA expression.
Primary human orbital fibroblasts were treated with TGFβ and either 6-formylindolo(3,2-b)carbazole (“FICZ”, 1 μM), Omeprazole (“Ome”, 2 μM, 10 μM, 50 μM, 100 μM, 250 μM, 500 μM), or Flutamide (“Flut”, 2 μM, 10 μM, 50 μM, 100 μM, 250 μM, 500 μM) to assess their ability to inhibit myofibroblast formation. […] Western blots were performed using cell lysates from the fibroblasts exposed to TGFβ to assess TGFβ-dependent αSMA expression. Densitometry analyses of the Western blots were also performed.

[2] = test system: TGFβ-induced SBE-luciferase activity; assay: Secondary dual luciferase screen (SBE-luciferase normalized to constitutive Renilla luciferase); type: cell-based, human; details: secondary dual luciferase screen, several doses (low micromolar)
Description: FIG. 1A is a diagram of Smad-dependent reporter construct. Four tandem Smad binding elements (SBE) were inserted upstream of the minimal Thymidine Kinase (TK) promoter. Downstream of the promoter is a destabilized version of the firefly luciferase gene (luc2P) present in the pLuc2P-Hygro plasmid which also harbors the hygromycin resistance gene. The plasmid was introduced into HEK293FT cell line and individual colonies were selected with hygromycin (200 ug/ml) to develop a Smad/TGFβ dependent-luciferase reporter cell line. FIG. 1B is a graph illustrating the response of the reporter cell line to 1 ng/ml treatment of TGFβ for 20 hours, which results in an approximately 20-fold increase of luciferase activity.
They are: Benzbromarone (“BZB”), Bithionate sodium (“BTS”), Piplartine (piperlongumine) (“PPT”), Amsacrine (“ASC”), and Alexidine (“AXD”). A secondary luciferase screening assay was performed to determine specificity and dose responsiveness of these compounds in comparison to salinomycin (“SNC”). The secondary screen utilizes dual luciferase technology that includes the above mentioned SBE-luciferase in addition to a Renilla luciferase that is under control of the constitutive SV40 promoter. Therefore the SBE-luciferase activity can be normalized to the Renilla luciferase activity to control for toxicity and non-specific effects. The secondary screen can thus be used to remove small molecules that display overt toxicity and/or non-specific effects on the primary assay.

[3] = test system: TGFβ-dependent myofibroblast formation in primary human fibroblasts; assay: Myofibroblast formation assay in primary human fibroblasts (morphology, Western blot) for Spectrum hits; type: cell-based; details: for α-SMA and calponin expression in human fibroblasts: FIG. 14 lanes: PPT 1, 5 uM, AXD 0.1, 1 uM, SNC 100 nM, 1 uM; for α-SMA and calponin expression in human fibroblasts / TGFβ-dependent αSMA and calponin (marker) expression / myofibroblast formation / phenotype: BTS, ASC; for TGFβ-dependent αSMA and calponin (marker) expression: higher dose: PPT 5 μM; for TGFβ-dependent αSMA and calponin (marker) expression / myofibroblast formation / phenotype: AXD 1 μM; for myofibroblast formation / phenotype: lowest effective dose from secondary screen: PPT 5 μM, SNC 0.1 μM, TGFβ 1 ng/ml, 72 hours
Description: Using the lowest effective dose from the secondary screening assay, PPT (5 μM), ASC (1 μM), BTS (1 μM), and AXD (1 μM) were compared to 0.1 μM SNC using primary human fibroblasts (FIG. 13). The myofibroblast formation assay consists of the following protocol: fibroblasts are treated with the aforementioned small molecules and treated with TGFβ (1 ng/ml) for 72 hours. The cells were then either photographed for morphological analysis or collected, lysed and analyzed by Western blot for the myofibroblast markers alpha-smooth muscle actin (αSMA) and calponin. β-tubulin was used as a loading control.
PPT was used at 1 and 5 μM (lanes 3 and 4), BTS was used at 0.1 and 1 μM (lanes 5 and 6), ASC was used at 0.1 and 1 μM (lanes 7 and 8), SNC was used at 100 nM and 1 μM (lanes 9 and 10), and AXD was used at 0.1 and 1 μM (lanes 11 and 12).

[4] = test system: TGFβ-induced luciferase activity; assay: Spectrum collection small molecule screen with TGFβ-dependent SBE-luciferase HEK293FT reporter cell line; type: cell-based, human; details: HEK293FT-luc reporter line
Excerpt: The minimal thymidine kinase promoter was amplified by PCR with the following forward and reverse primers, of which the forward primer contained four tandem Smad binding elements (SBE):
Restriction sites in the primers are underlined. The resultant PCR product was TOPO cloned (Invitrogen) and the correct insert was verified by DNA sequencing. The construct was digested with SacI-HindIII and the SBEx4-TK insert was purified and ligated with the pGL4.15 vector (Promega). Clones were verified by restriction digest and then tested for TGFβ responsiveness in transient transfections of 293FT cells. […] Clones were selected by treatment with 200 μg/ml hygromycin. 20 clones were selected and screened for TGFβ-induced luciferase activity. One clone that was robustly responsive was subsequently used in the small molecule screen.
Excessive scarring results from the formation of too many myofibroblasts and the production of too much extracellular matrix material such as collagen. Since TGFβ drives the formation of myofibroblasts in part through activating the Smad pathway, a reporter construct was designed to serve as a measure of TGFβ-induced Smad activity (FIG. 1A). Four tandem Smad binding elements (SBE) were inserted upstream of the minimal thymidine kinase promoter. The SBEx4-TK promoter was inserted into the pGL4.15 vector which contains a destabilized firefly luciferase gene and the hygromycin resistance gene. The pSBEx4-TK-luc-Hygro plasmid was then introduced into HEK293FT cells by lipofection. Stable clones were generated and screened for TGFβ induced luciferase activity. One clone was selected that consistently gave a 15 to 20-fold induction of luciferase activity when cells were treated with TGFβ for 24 hours (FIG. 1B).
To find compounds that inhibit TGFβ activity and thus may be novel anti-scarring compounds, the Spectrum collection of 2,300 small molecules was screened with the cell line. […] Salinomycin, an antibiotic produced from Streptomyces albus is used as coccidiostat agent in animal feed (Knirschova et al., “Multiple regulatory genes in the salinomycin biosynthetic gene cluster of Streptomyces albus CCM 4719,” Folia Microbiologica 52:359-365 (2007), which is hereby incorporated by reference in its entirety). […] Thus, further investigation was made to assess the use of salinomycin as an anti-scarring agent.

[5] = test system: TGFβ-induced myofibroblast formation in human fibroblasts; assay: Western blot of myofibroblast markers αSMA and calponin in TGFβ-treated human (TED orbital) fibroblasts; type: cell-based; details: 250 nM, TGFβ, 72 hours
Description: TED fibroblasts were treated with TGFβ (1 ng/ml) in the presence or absence of 10-250 nM salinomycin for 72 hours to allow formation of myofibroblasts. After 72 hours, cells were harvested and analyzed by Western blot. As expected, the fibroblasts robustly responded to TGFβ, expressing high levels of αSMA and calponin (FIG. 2A). […] At 50 nM salinomycin, expression of αSMA was reduced by 4-fold over TGFβ treatment alone. Furthermore, at 250 nM salinomycin, αSMA expression was reduced by approximately 16-fold, to levels at or below untreated fibroblasts. […] Another key role of myofibroblasts in scar formation is the production of collagen. Whether salinomycin could block myofibroblast collagen production was assessed. Cells were treated with TGFβ and salinomycin as above and after 72 hours, culture medium was collected and analyzed for collagen levels using a specific collagen I antibody and slot blot analysis.
To test these four compounds, human fibroblasts were treated with TGFβ in the absence or presence of 250 nM of either salinomycin, narasin, clioquinol or monensin for 72 hours. After treatment, cell lysates were harvested and analyzed for the presence of the myofibroblast markers, αSMA and calponin (FIG. 3B).

human fibroblasts = assay: BrdU incorporation assay (cell proliferation); type: cell-based
Description: Human fibroblasts were seeded on a 96-well plate at a density of 1×10^5 cells/well. Cells were treated in triplicate. Cell proliferation was determined using the bromodeoxyuridine (BrdU) assay following manufacturer's instructions. Briefly, cells were treated with a BrdU label at a 1:2000 dilution for 24 h after the initial 72 h treatment with TGFβ+/−drugs. BrdU incorporation was measured using the BrdU Cell Proliferation Assay kit (Calbiochem, San Diego, Calif.) at 450-540 nm using a Varioskan microplate reader.
While salinomycin and other polyether ionophores blocked myofibroblast formation, it was next assessed whether these effects were a result of toxicity and/or due to a block of cell proliferation. Though the treatment doses are relatively low (efficacy in 100-250 nM range), a loss of cell viability could still be a possibility. To test this, human fibroblasts were treated with vehicle (DMSO), 50-250 nM salinomycin alone, TGFβ or TGFβ plus 250 nM salinomycin. As a positive control, fibroblasts were treated with the cytotoxic drug, puromycin. Treated cells were cultured in the presence of alamar blue reagent, which measures mitochondrial oxidation-reduction (REDOX) potential and serves as a quantitative viability sensor. After 72 hours of culture, alamar blue fluorescence was measured to assay cell viability (FIG. 4A). […] It was also tested whether salinomycin affects basal fibroblast proliferation. To address this, cells were treated with vehicle or 250 nm of either salinomycin or narasin for 24 hours in the presence of bromodeoxyuridine (BrdU) to measure cell proliferation ([…], first three bars). […] BrdU was also added to cells treated with TGFβ in the presence or absence of 250 nM salinomycin or narasin (FIG. 4B, last three bars). As expected, TGFβ induced human fibroblast proliferation. Remarkably, both salinomycin and narasin were able to beneficially block TGFβ induced proliferation by 4 to 5 fold, without affecting basal proliferation levels.

SMILES	inhibition of luciferase expression, dose responsiveness [2]	α-SMA and calponin expression in human fibroblasts [3]	TGFβ-dependent αSMA and calponin (marker) expression [3]	myofibroblast formation / phenotype [3]	inhibition of TGFβ-induced luciferase activity, initial screen [4]	other results
COc1ccc2[nH]c([S+]([O-])Cc3ncc(C)c(OC)c3C)nc2c1 (racemic) [omeprazole]						αSMA expression ([1]; 100 μM): sub-baseline levels; overt toxicity [1]: No overt toxicity was observed; TGFβ-induced myofibroblast differentiation (αSMA expression) [1]: inhibited TGFβ-induced myofibroblast differentiation; also recorded: inhibits human orbital fibroblast to myofibroblast differentiation
COc1cc(NS(C)(=O)=O)ccc1Nc1c2ccccc2nc2ccccc12 [ASC, amsacrine]	substantially inhibited luciferase expression; also recorded: strong luciferase inhibition	inhibit β-dependent α-SMA and calponin expression	inhibited marker expression	inhibit myofibroblast phenotype; also recorded: inhibits myofibroblast formation	inhibit TGFβ-induced luciferase	
CCCCC(CC)CNC(=N)NC(=N)NCCCCCCNC(=N)NC(=N)NCC(CC)CCCC (stereo not shown) [AXD, alexidine]	substantially inhibited luciferase expression; also recorded: strong luciferase inhibition	inhibit β-dependent α-SMA and calponin expression	inhibited marker expression	inhibit myofibroblast phenotype; also recorded: inhibits myofibroblast formation	inhibit TGFβ-induced luciferase	expression of Thy1 ([3]; high dose, 1 μM): did inhibit Thy1
Oc1c(Cl)cc(Cl)cc1Sc1cc(Cl)cc(Cl)c1O [BTS, bithionate sodium]	substantially inhibited luciferase expression; also recorded: strong luciferase inhibition	inhibit β-dependent α-SMA and calponin expression	inhibited marker expression	inhibit myofibroblast phenotype; also recorded: inhibits myofibroblast formation	inhibit TGFβ-induced luciferase	
CCc1oc2ccccc2c1C(=O)c1cc(Br)c(O)c(Br)c1 [BZB, benzbromarone]	All but BZB substantially inhibited luciferase expression				inhibit TGFβ-induced luciferase	
COc1cc(/C=C/C(=O)N2CCC=CC2=O)cc(OC)c1OC [PPT, piplartine (piperlongumine)]	substantially inhibited luciferase expression; also recorded: strong luciferase inhibition	inhibit β-dependent α-SMA and calponin expression	inhibited marker expression	inhibit myofibroblast phenotype; also recorded: inhibits myofibroblast formation	inhibit TGFβ-induced luciferase	
CC(C)C(=O)Nc1ccc([N+](=O)[O-])c(C(F)(F)F)c1 [flutamide, Flutamide]						overt toxicity [1]: No overt toxicity was observed; TGFβ-induced myofibroblast differentiation (αSMA expression) [1]: inhibited TGFβ-induced myofibroblast differentiation; also recorded: inhibits human orbital fibroblast to myofibroblast differentiation
CC[C@@H](C(=O)O)[C@@H]1O[C@@H]([C@@H](C)[C@H](O)[C@H](C)C(=O)[C@H](CC)[C@H]2O[C@]3(C=C[C@@H](O)[C@]4(CC[C@@](C)([C@H]5CC[C@](O)(CC)[C@H](C)O5)O4)O3)[C@H](C)C[C@@H]2C)[C@@H](C)C[C@@H]1C [narasin]						expression of αSMA and calponin [5]: inhibited expression of αSMA and calponin; TGFβ induced proliferation (BrdU incorporation) (human fibroblasts; 250 nM plus TGFβ): significantly blocked TGFβ induced proliferation; basal fibroblast proliferation (BrdU incorporation) (human fibroblasts; 250 nM, without TGFβ): did not affect basal fibroblast proliferation; also recorded: Neither salinomycin nor narasin blocked basal fibroblast proliferation
